Assay results from PubChem BioAssay AID624285 (Broad Institute, 2012).
Activity calls are given as the source filed them.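 The calls were made as follows: active = signal-decreasing dose-response curve whose fitted half-maximal concentration is at or below twice the highest valid tested dose; inconclusive = flat fit at 30 to 70% signal loss, or poor fit; inactive = the rest.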

Tested on: NIH3T3/HeLa viability, CellTiter-Glo ATP luminescence, 24 h
Experiment: cytotoxicity in mammalian cells, dose response, cytotoxicity control for PDI inhibitor project, cell-based, 24 h, luminescence, cherry-picked samples (AID 624285)

| SMILES | AC50 |
| --- | --- |
| CN1CCN(Cc2nc3ccccc3c(=O)n2Cc2nc(-c3ccc4ccccc4c3)cs2)CC1 | 7.27 µM |
| C[C@H]1CN([C@@H](C)CO)C(=O)Cc2cc(NC(=O)Nc3ccccc3)ccc2O[C@H]1CN(C)Cc1ccccc1 | > 70 µM (inactive) |
| CC12CCC3c4ccc(O)cc4CCC3C1CCC2=O (stereo unspecified) | > 70 µM (inactive) |
| CCOC(=O)C1=C(c2ccccc2)N=c2s/c(=C\c3cccc(O)c3)c(=O)n2C1c1cccs1 (stereo unspecified) | 23 µM |
| CC[C@]12c3[nH]c4cc(-c5ccco5)ccc4c3CCN1C(=O)[C@@H](CC(=O)NCc1ccc(OC)c(OC)c1)C[C@@H]2C(=O)N1CCN(C(=O)c2ccco2)CC1 | > 70 µM (inactive) |
| CCN1C[C@]2(COC(=O)c3ccccc3N)CC[C@H](OC)C34[C@@H]5C[C@H]6[C@H](OC)[C@@H]5[C@](O)(C[C@@H]6OC)[C@@](O)([C@H]13)[C@@H](OC)[C@@H]42 | > 70 µM (inactive) |
| O=C(NCCc1c[nH]c2ccccc12)/C(=C\c1cccnc1)NC(=O)c1ccccc1Br | > 70 µM (inactive) |
| CCOc1cc(N2CCOCC2)c(OCC)cc1NC(=O)COC(=O)[C@H](Cc1c[nH]c2ccccc12)NC(C)=O | > 70 µM (inactive) |
| Cc1ccc2c(c1)Oc1ccc(NC(=O)CCl)cc1C(=O)N2 | 8.51 µM |
| Cc1ccc(S(=O)(=O)N(C)c2ccc(OC(=O)COc3ccccc3)cc2)cc1 | > 70 µM (inactive) |
| CC(C)Sc1nnc([C@H](Cc2c[nH]c3ccccc23)NC(=O)OC(C)(C)C)o1 | > 70 µM (inactive) |
| O=C(Nc1nc2ccccc2s1)c1cccc(S(=O)(=O)N2CCc3ccccc32)c1 | > 70 µM (inactive) |
| O=C1N[C@@H](Cc2c[nH]c3ccccc23)COC(=O)[C@@H](Cc2ccc(F)cc2)C/C=C\C[C@H]1CC(=O)N(CCO)Cc1ccccc1 | 30.2 µM |
| COC1/C=C/C=C(\C)Cc2cc(O)c(Cl)c(c2)N(C)C(=O)CC(OC(=O)C(C)C)C2(C)OC2C(C)C2CC1(O)NC(=O)O2 (stereo unspecified) | > 70 µM (inactive) |
| CN(C)CCCN(C(=O)c1ccc(S(=O)(=O)N2CCCc3ccccc32)cc1)c1nc2ccc(F)cc2s1 | 18.2 µM |
| C[C@]12CC[C@@H]3c4ccc(O)cc4C(=O)C[C@H]3[C@@H]1CC[C@@H]2O | > 70 µM (inactive) |
| COc1cc(C2C(C#N)=C(N)Oc3cc(O)ccc32)cc(OC)c1OC (stereo unspecified) | > 70 µM (inactive) |
| COc1ccc(C2c3ccc(O)cc3Oc3ncn4nc(-c5cccnc5)nc4c32)cc1OC (stereo unspecified) | 30.6 µM |
| CCOc1ccc(CCN2C(=O)C(=O)N([C@@H](CC(C)C)CN3CCC[C@@H]3CN3C(=O)C(=O)NC[C@@H]3Cc3ccccc3)C[C@@H]2Cc2ccc(O)cc2)cc1 | 38.1 µM |
| O=C(NCc1ccccc1CN1CCCC1)c1cc2ccccc2o1 | > 70 µM (inactive) |
| COc1cc2cc(C(=O)N3CC(COS(C)(=O)=O)c4ccc(O)cc43)[nH]c2c(OC)c1OC (stereo unspecified) | 0.0396 µM |
| O=C(Nc1nccs1)c1ccc(-c2ccccc2[N+](=O)[O-])o1 | > 70 µM (inactive) |
| COc1cccc2c1C(=O)c1c(O)c3c(c(O)c1C2=O)CC(O)(C(C)=NO)CC3OC1CC(N)C(O)C(C)O1 (stereo unspecified) | 5.56 µM |
| CCOc1cc(N2CCOCC2)c(OCC)cc1NC(=O)Cc1ccccc1OC | 39.5 µM |
| NNC(=O)c1cc(-c2ccc(O)cc2)nc2ccc(Br)cc12 | > 70 µM (inactive) |
| Cc1cc(C(=O)Cn2nnc3ccccc3c2=O)c(C)n1-c1ccccc1F | > 70 µM (inactive) |
